From patent publication US10745396B2, “Pesticidally active polycyclic derivatives with sulfur containing substituents” (Syngenta Participations AG, priority 2015, dated 2020)

Legend:
Assay type in all cases: in vivo
[1] = tested on: Diabrotica balteata (Corn Root Worm); assay: Diabrotica balteata, maize sprouts on agar, L2 larvae; conditions: 96 h, application rate of 200 ppm, 4 days after infestation, read-out: effect in at least one of the two categories (mortality or growth inhibition)
Experimental: Example B2: Diabrotica balteata (Corn Root Worm)
Maize sprouts placed onto an agar layer in 24-well microtiter plates were treated with aqueous test solutions prepared from 10′000 ppm DMSO stock solutions by spraying. After drying, the plates were infested with L2 larvae (6 to 10 per well). The samples were assessed for mortality and growth inhibition in comparison to untreated samples 4 days after infestation.

[2] = tested on: Spodoptera littoralis (Egyptian Cotton Leaf Worm); assay: Spodoptera littoralis, cotton leaf discs, L1 larvae; conditions: foliar, 72 h, application rate of 200 ppm, 3 days after infestation
Experimental: Example B8: Spodoptera littoralis (Egyptian Cotton Leaf Worm)
Cotton leaf discs were placed onto agar in 24-well microtiter plates and sprayed with aqueous test solutions prepared from 10′000 ppm DMSO stock solutions. After drying the leaf discs were infested with five L1 larvae. The samples were assessed for mortality, anti-feeding effect, and growth inhibition in comparison to untreated samples 3 days after infestation. Control of Spodoptera littoralis by a test sample is given when at least one of the categories mortality, anti-feedant effect, and growth inhibition is higher than the untreated sample.

[3] = tested on: Bemisia tabaci (Cotton White Fly); assay: Bemisia tabaci feeding/contact activity, cotton leaf discs; conditions: foliar, 144 h, application rate of 200 ppm, 6 days after incubation, adult white flies
Experimental: Example B1: Bemisia tabaci (Cotton White Fly): Feeding/Contact Activity
Cotton leaf discs were placed on agar in 24-well microtiter plates and sprayed with aqueous test solutions prepared from 10′000 ppm DMSO stock solutions. After drying the leaf discs were infested with adult white flies. The samples were checked for mortality 6 days after incubation.

[4] = tested on: Euschistus heros (Neotropical Brown Stink Bug); assay: Euschistus heros, soybean leaves on agar, N2 nymphs; conditions: 120 h, application rate of 200 ppm, 5 days after infestation, read-out: effect in at least one of the two categories (mortality or growth inhibition)
Experimental: Example B3: Euschistus heros (Neotropical Brown Stink Bug)
Soybean leaves on agar in 24-well microtiter plates were sprayed with aqueous test solutions prepared from 10′000 ppm DMSO stock solutions. After drying the leaves were infested with N2 nymphs. The samples were assessed for mortality and growth inhibition in comparison to untreated samples 5 days after infestation.

[5] = tested on: Plutella xylostella (Diamond Back Moth); assay: Plutella xylostella, artificial diet, L2 larvae; conditions: 120 h, application rate of 200 ppm, 5 days after infestation, read-out: effect in at least one of the two categories (mortality or growth inhibition)
Experimental: Example B7: Plutella xylostella (Diamond Back Moth)
24-well microtiter plates with artificial diet were treated with aqueous test solutions prepared from 10′000 ppm DMSO stock solutions by pipetting. After drying, the plates were infested with L2 larvae (10 to 15 per well). The samples were assessed for mortality and growth inhibition in comparison to untreated samples 5 days after infestation.

[6] = tested on: Myzus persicae (Green Peach Aphid); assay: Myzus persicae systemic activity, pea seedling roots in test solution; conditions: 144 h, test rate of 24 ppm, 6 days after placing seedlings into test solutions
Experimental: Example B6: Myzus persicae (Green Peach Aphid): Systemic Activity
Roots of pea seedlings infested with an aphid population of mixed ages were placed directly into aqueous test solutions prepared from 10′000 DMSO stock solutions. The samples were assessed for mortality 6 days after placing seedlings into test solutions.

[7] = tested on: Myzus persicae (Green Peach Aphid); assay: Myzus persicae feeding/contact activity, sunflower leaf discs; conditions: foliar, 144 h, application rate of 200 ppm, 6 days after infestation
Experimental: Example B5: Myzus persicae (Green Peach Aphid): Feeding/Contact Activity
Sunflower leaf discs were placed onto agar in a 24-well microtiter plate and sprayed with aqueous test solutions prepared from 10′000 ppm DMSO stock solutions. After drying, the leaf discs were infested with an aphid population of mixed ages. The samples were assessed for mortality 6 days after infestation.

[8] = tested on: Spodoptera littoralis (Egyptian Cotton Leaf Worm); assay: Spodoptera littoralis, uptake by lettuce roots from agar, eggs; conditions: 144 h, test rate of 12.5 ppm, 6 days after infestation, read-out: effect in at least one of the three categories (mortality, anti-feeding, or growth inhibition)
From the text: Example B9: Spodoptera littoralis (Egyptian Cotton Leaf Worm)
Test compounds were applied by pipette from 10′000 ppm DMSO stock solutions into 24-well plates and mixed with agar. Lettuce seeds were placed onto the agar and the multi well plate was closed by another plate which contained also agar. After 7 days the compound was absorbed by the roots and the lettuce grew into the lid plate. The lettuce leaves were then cut off into the lid plate. Spodoptera eggs were pipetted through a plastic stencil onto a humid gel blotting paper and the lid plate was closed with it. The samples were assessed for mortality, anti-feedant effect and growth inhibition in comparison to untreated samples 6 days after infestation.

[9] = tested on: Frankliniella occidentalis (Western Flower Thrips); assay: Frankliniella occidentalis feeding/contact activity, sunflower leaf discs; conditions: foliar, 168 h, application rate of 200 ppm, 7 days after infestation, population of mixed ages
Experimental: Example B4: Frankliniella occidentalis (Western Flower Thrips): Feeding/Contact Activity
(§1) Sunflower leaf discs were placed on agar in 24-well microtiter plates and sprayed with aqueous test solutions prepared from 10′000 DMSO stock solutions. After drying the leaf discs were infested with a Frankliniella population of mixed ages. The samples were assessed for mortality 7 days after infestation.

[10] = tested on: Thrips tabaci (Onion Thrips); assay: Thrips tabaci feeding/contact activity, sunflower leaf discs; conditions: foliar, 144 h, application rate of 200 ppm, 6 days after infestation
Experimental: Example B11: Thrips tabaci (Onion Thrips) Feeding/Contact Activity
as §1, with “10′000 ppm” for “10′000”, “thrips” for “Frankliniella”, “6” for “7”

[11] = tested on: Tetranychus urticae (Two-Spotted Spider Mite); assay: Tetranychus urticae feeding/contact activity, bean leaf discs; conditions: foliar, 192 h
Experimental: Example B10: Tetranychus urticae (Two-Spotted Spider Mite): Feeding/Contact Activity
Bean leaf discs on agar in 24-well microtiter plates were sprayed with aqueous test solutions prepared from 10′000 ppm DMSO stock solutions. After drying the leaf discs were infested with a mite population of mixed ages. The samples were assessed for mortality on mixed population (mobile stages) 8 days after infestation.

CCn1c(C(F)(F)F)cc2nc(-c3nc(-n4ccc(C(F)(F)F)n4)ccc3S(=O)(=O)CC)n(C)c2c1=O [Compound P3, 5-ethyl-2-[3-ethylsulfonyl-6-[3-(trifluoromethyl)pyrazol-1-yl]-2-pyridyl]-3-methyl-6-(trifluoromethyl)imidazo[4,5-c]pyridin-4-one]
≥ 80%: percent effect (mortality or growth inhibition) at 200 ppm [1] | percent control (mortality, anti-feedant effect or growth inhibition) at 200 ppm [2] | mortality at 200 ppm [3] | percent effect (mortality or growth inhibition) at 200 ppm [4] | percent effect (mortality or growth inhibition) at 200 ppm [5]

CCn1c(C(F)(F)F)cc2nc(-c3nc(-c4cncn4C)ccc3S(=O)(=O)CC)n(C)c2c1=O [Compound P28]
≥ 80%: percent effect (mortality or growth inhibition) at 200 ppm [1] | percent control (mortality, anti-feedant effect or growth inhibition) at 200 ppm [2] | mortality at 200 ppm [3] | percent effect (mortality or growth inhibition) at 200 ppm [5]

CCn1c(C(F)(F)F)cc2nc(-c3nc(-c4cnco4)ccc3S(=O)(=O)CC)n(C)c2c1=O [Compound P38]
≥ 80%: percent effect (mortality or growth inhibition) at 200 ppm [1] | percent control (mortality, anti-feedant effect or growth inhibition) at 200 ppm [2] | mortality at 24 ppm [6] | mortality at 200 ppm [7] | percent effect (mortality or growth inhibition) at 200 ppm [5]

CCn1c(C(F)(F)F)cc2nc(-c3nc(-c4cccc(F)c4)ccc3S(=O)(=O)CC)n(C)c2c1=O [Compound P14]
≥ 80%: percent effect (mortality or growth inhibition) at 200 ppm [1] | percent control (mortality, anti-feedant effect or growth inhibition) at 200 ppm [2] | mortality at 200 ppm [3] | percent effect (mortality or growth inhibition) at 200 ppm [4] | percent effect (mortality, anti-feeding or growth inhibition) at 12.5 ppm [8] | mortality at 200 ppm [7] | percent effect (mortality or growth inhibition) at 200 ppm [5]

CCn1c(C(F)(F)F)cc2nc(-c3nc(-c4cnc(OC)nc4)ccc3S(=O)(=O)CC)n(C)c2c1=O [Compound P20]
≥ 80%: percent effect (mortality or growth inhibition) at 200 ppm [1] | percent control (mortality, anti-feedant effect or growth inhibition) at 200 ppm [2] | percent effect (mortality or growth inhibition) at 200 ppm [4] | mortality at 200 ppm [9] | percent effect (mortality, anti-feeding or growth inhibition) at 12.5 ppm [8] | mortality at 200 ppm [7] | percent effect (mortality or growth inhibition) at 200 ppm [5]

CCS(=O)(=O)c1ccc(-n2cncn2)nc1-c1nc2cc(C(F)(F)F)n(C3CC3)c(=O)c2n1C [Compound P4, 5-cyclopropyl-2-[3-ethylsulfonyl-6-(1,2,4-triazol-1-yl)-2-pyridyl]-3-methyl-6-(trifluoromethyl)imidazo[4,5-c]pyridin-4-one]
≥ 80%: percent effect (mortality or growth inhibition) at 200 ppm [1] | mortality at 200 ppm [10] | percent control (mortality, anti-feedant effect or growth inhibition) at 200 ppm [2] | mortality at 200 ppm [3] | percent effect (mortality or growth inhibition) at 200 ppm [4] | mortality at 24 ppm [6] | percent effect (mortality, anti-feeding or growth inhibition) at 12.5 ppm [8] | mortality at 200 ppm [11] | mortality at 200 ppm [7] | percent effect (mortality or growth inhibition) at 200 ppm [5]

CCn1c(C(F)(F)F)cc2nc(-c3nc(-c4ccc(C(F)(F)F)nc4)ccc3S(=O)(=O)CC)n(C)c2c1=O [Compound P16]
≥ 80%: percent effect (mortality or growth inhibition) at 200 ppm [1] | percent control (mortality, anti-feedant effect or growth inhibition) at 200 ppm [2] | mortality at 200 ppm [3] | percent effect (mortality or growth inhibition) at 200 ppm [4] | mortality at 200 ppm [9] | mortality at 200 ppm [7] | percent effect (mortality or growth inhibition) at 200 ppm [5]

CCn1c(C(F)(F)F)cc2nc(-c3nc(-c4cccc(SC)c4)ccc3S(=O)(=O)CC)n(C)c2c1=O [Compound P29]
≥ 80%: percent effect (mortality or growth inhibition) at 200 ppm [1] | percent control (mortality, anti-feedant effect or growth inhibition) at 200 ppm [2] | mortality at 200 ppm [3] | percent effect (mortality or growth inhibition) at 200 ppm [4] | mortality at 200 ppm [7] | percent effect (mortality or growth inhibition) at 200 ppm [5]

CCn1c(C(F)(F)F)cc2nc(-c3nc(-c4cc(F)ccc4F)ccc3S(=O)(=O)CC)n(C)c2c1=O [Compound P37]
≥ 80%: percent effect (mortality or growth inhibition) at 200 ppm [1] | percent control (mortality, anti-feedant effect or growth inhibition) at 200 ppm [2] | mortality at 200 ppm [3] | percent effect (mortality or growth inhibition) at 200 ppm [4] | percent effect (mortality, anti-feeding or growth inhibition) at 12.5 ppm [8] | percent effect (mortality or growth inhibition) at 200 ppm [5]

CCn1c(C(F)(F)F)cc2nc(-c3nc(-n4cncn4)ccc3S(=O)(=O)CC)n(C)c2c1=O [Compound P5]
≥ 80%: percent effect (mortality or growth inhibition) at 200 ppm [1] | mortality at 200 ppm [10] | percent control (mortality, anti-feedant effect or growth inhibition) at 200 ppm [2] | mortality at 200 ppm [3] | percent effect (mortality or growth inhibition) at 200 ppm [4] | mortality at 24 ppm [6] | percent effect (mortality, anti-feeding or growth inhibition) at 12.5 ppm [8] | mortality at 200 ppm [7] | percent effect (mortality or growth inhibition) at 200 ppm [5]

CCn1c(C(F)(F)F)cc2nc(-c3nc(-c4cncnc4)ccc3S(=O)(=O)CC)n(C)c2c1=O [Compound P21]
≥ 80%: percent effect (mortality or growth inhibition) at 200 ppm [1] | percent control (mortality, anti-feedant effect or growth inhibition) at 200 ppm [2] | mortality at 200 ppm [3] | percent effect (mortality or growth inhibition) at 200 ppm [4] | percent effect (mortality, anti-feeding or growth inhibition) at 12.5 ppm [8] | mortality at 200 ppm [7] | percent effect (mortality or growth inhibition) at 200 ppm [5]

CCn1c(C(F)(F)F)cc2nc(-c3nc(C4CC4)ccc3S(=O)(=O)CC)n(C)c2c1=O [Compound P11]
≥ 80%: mortality at 200 ppm [3]

CCn1c(C(F)(F)F)cc2nc(-c3nc(-c4ccncc4)ccc3S(=O)(=O)CC)n(C)c2c1=O [Compound P13]
≥ 80%: percent effect (mortality or growth inhibition) at 200 ppm [1] | percent control (mortality, anti-feedant effect or growth inhibition) at 200 ppm [2] | mortality at 200 ppm [9] | percent effect (mortality or growth inhibition) at 200 ppm [5]
